# Results: patent publication EP2649983A1, “Compounds which inhibit neuronal exocytosis (II)” (Lipotec, S.A., priority 2012, dated 2013)
# Residues, ends and D or L forms follow the SMILES beside them. No end group written: not given here. *: point of attachment. Palmitoyl = CCCCCCCCCCCCCCCC(=O)*; NHhexadecyl = CCCCCCCCCCCCCCCCN*; Myristoyl = CCCCCCCCCCCCCC(=O)*
# Tests used:
# SNARE complex [1] = assay: Inhibition of SNARE complex formation (competition versus SNAP-25), complex detected by ELISA; assay type: binding
# Experimental: With the aim of determining the capacity of inhibition of the SNARE complex formation by the compounds of the invention, the competitive inhibition of the compounds compared to SNAP-25 was studied with regards to the formation of this complex. The proportion of SNARE complex formed was determined by the ELISA technique, using one of the proteins from the complex bound to GST. In a 96-well plate VAMP was immobilized (using a 0.037 µM solution) and subsequently the free spaces were blocked with BSA (3%). Parallel to this process, SNAP-25 bound to GST (0.0185 µM), syntaxin (0.037 µM) and a compound of the invention (2.5 mM and 0.5 mM compounds) were incubated for 1 hour. After incubation, the samples were transferred to the plate with immobilized VAMP and were incubated for 1 hour to allow the formation of the SNARE complex. Afterward, the plate was washed and the complex was detected by a primary antibody anti-GST (Antibody anti-GST epitope TAG, Fisher Cat. no:PA1-982A). The reading was carried out at a wavelength of 490 nm in a TECAN GENios spectrophotometric reader.
# Table 4 showns the results of the competitive inhibition of the formation of the SNARE complex by the compounds of the invention versus SNAP-25. The percentage of inhibition of the formation of the complex is inversely proportional to the quantity of SNARE complex spectrophotometrically detected.
# SNARE complex [2] = assay: Inhibition of SNARE complex formation, complex detected by electrophoresis (SDS-PAGE); assay type: binding
# Experimental: VAMP (6 µM), syntaxin (6 µM) and the compound of the invention (5 mM or 1 mM compounds) were incubated for 3 hours. Subsequently, SNAP-25 (0.6 µM) was added and the mixture was incubated for an additional 15 hours to allow the formation of the SNARE complex. After incubation, the loading buffer (Laemli Simple Buffer) was added and the mixture was analyzed by 10% acrylamide SDS-PAGE in gel. The amount of complex was determined by MediaCybernetics image analysis software Image-Pro Plus.
# The percentage of inhibition of the formation of the complex is inversely proportional to the quantity of SNARE complex detected.
# [3] = tested on: human neuroblastoma cell line; assay: Release of noradrenaline induced by TPA/ionomycin in a neuroblastoma cell line, quantified by ELISA; assay type: cell-based; settings: 60 minutes pre-incubation, TPA/ION = 100.00
# Experimental: The induction of the release of noradrenaline with TPA (12-O-tetradecanoylphorbol-13-acetate)/lonomycin enables direct measurement of neuronal exocytosis. For the study of the inhibitory effect of the compounds of the invention on the release of noradrenaline, cells of a human neuroblastoma cell line were pre-incubated (1x10^6 cells/well) for 60 minutes with the compound of the invention (1 µM, 10 µM, 100 µM, 500 µM or 1 mM compounds), and afterward the release of noradrenaline was induced. The release of the noradrenaline neurotransmitter was induced by an 8 minute pretreatment with a solution of 12-O-tetradecanoylphorbol-13-acetate (TPA) 100 nM, which mobilized the intracellular vesicles which contained the neurotransmitter; followed by a 5 minute incubation with TPA/lonomycin (100 nM/10 µM), which induced the release of the neurotransmitter contained in these vesicles. […] For this, absorbance at 405 nm was measured in Thermo Scientific Multiskan Ascent equipment.
# The blocking of the SNARE complex by the compounds of the invention lead to an inhibition of neuronal exocytosis and therefore, a decrease in the levels of released noradrenaline (Table 6).
# [4] = concentration of compound 2.5 mM
# [5] = concentration of compound 0.5 mM
molecule,measurement,setting,value
CCCCCCCCCCCCCCCCNC(=O)[C@H](CCSC)NC(=O)[C@H](Cc1c[nH]c2ccccc12)NC(=O)[C@H](CCCNC(=N)N)NC(=O)[C@H](CCCCN)NC(=O)[C@H](CC(C)C)NC(=O)[C@H](CC(=O)O)NC(=O)[C@H](CCC(=O)O)NC(C)=O [Ac-SEQ ID NO:14-NH-(CH2)15-CH3] (Ac-EDLKRWM-NHhexadecyl),% inhibition formation SNARE complex,SNARE complex [1]; [4],35%
CCCCCCCCCCCCCC(=O)N[C@@H](CC(N)=O)C(=O)N[C@@H](Cc1c[nH]cn1)C(=O)N[C@@H](Cc1ccccc1)C(=O)N[C@@H](CC(C)C)C(=O)N[C@@H](CC(N)=O)C(=O)N[C@@H](Cc1c[nH]c2ccccc12)C(=O)N[C@@H](CCSC)C(N)=O [Myr-SEQ ID NO:15-NH2] (Myristoyl-NHFLNWM-NH2),% inhibition formation SNARE complex,SNARE complex [2]; concentration of compound 1 mM,23%
same,% inhibition formation SNARE complex,SNARE complex [2]; concentration of compound 5 mM,76%
CCCCCCCCCCCCCCCC(=O)N[C@@H](CCC(=O)O)C(=O)N[C@@H](Cc1c[nH]cn1)C(=O)N[C@@H](CC(C)C)C(=O)N[C@@H](CCCCN)C(=O)N[C@@H](CCC(N)=O)C(=O)N[C@@H](Cc1c[nH]c2ccccc12)C(=O)N[C@@H](CCSC)C(N)=O [Palm-SEQ ID NO:1-NH2] (Palmitoyl-EHLKQWM-NH2),% inhibition formation SNARE complex,SNARE complex [1]; [5],21%
same,% inhibition formation SNARE complex,SNARE complex [1]; [4],47%
CCCCCCCCCCCCCCCC(=O)N[C@@H](CCC(N)=O)C(=O)N[C@@H](Cc1c[nH]cn1)C(=O)N[C@@H](CC(C)C)C(=O)N[C@@H](Cc1c[nH]cn1)C(=O)N[C@@H](CC(N)=O)C(=O)N[C@H](C(=O)N[C@@H](CCSC)C(N)=O)C(C)C [Palm-SEQ ID NO:3-NH2] (Palmitoyl-QHLHNVM-NH2),% inhibition formation SNARE complex,SNARE complex [1]; [4],51%
CCCCCCCCCCCCCCCC(=O)N[C@@H](CCC(=O)O)C(=O)N[C@@H](CC(=O)O)C(=O)N[C@@H](CC(C)C)C(=O)N[C@@H](CCCCN)C(=O)N[C@@H](CCCNC(=N)N)C(=O)N[C@@H](Cc1c[nH]c2ccccc12)C(=O)N[C@@H](CCSC)C(N)=O [Palm-SEQ ID NO:14-NH2] (Palmitoyl-EDLKRWM-NH2),% inhibition formation SNARE complex,SNARE complex [2]; concentration of compound 5 mM,93%
CCCCCCCCCCCCCCCC(=O)N[C@@H](CC(N)=O)C(=O)N[C@@H](Cc1c[nH]cn1)C(=O)N[C@@H](Cc1ccccc1)C(=O)N[C@@H](CC(C)C)C(=O)N[C@@H](CC(N)=O)C(=O)N[C@@H](Cc1c[nH]c2ccccc12)C(=O)N[C@@H](CCSC)C(N)=O [Palm-SEQ ID NO:15-NH2] (Palmitoyl-NHFLNWM-NH2),% inhibition formation SNARE complex,SNARE complex [1]; [4],21%
same,% inhibition formation SNARE complex,SNARE complex [2]; concentration of compound 1 mM,22%
same,% inhibition formation SNARE complex,SNARE complex [2]; concentration of compound 5 mM,74%
CCCCCCCCCCCCCCCC(=O)N[C@@H](CC(=O)O)C(=O)N[C@@H](Cc1c[nH]cn1)C(=O)N[C@@H](Cc1ccccc1)C(=O)N[C@@H](CCC(N)=O)C(=O)N[C@@H](CCC(N)=O)C(=O)N[C@@H](CCCNC(=N)N)C(=O)N[C@@H](CCSC)C(N)=O [Palm-SEQ ID NO:24-NH2] (Palmitoyl-DHFQQRM-NH2),% inhibition formation SNARE complex,SNARE complex [1]; [5],36%
same,% inhibition formation SNARE complex,SNARE complex [2]; concentration of compound 1 mM,17%
same,% inhibition formation SNARE complex,SNARE complex [2]; concentration of compound 5 mM,66%
CCCCCCCCCCCCCCCC(=O)N[C@@H](CC(=O)O)C(=O)N[C@@H](Cc1c[nH]cn1)C(=O)N[C@@H](Cc1ccccc1)C(=O)N[C@@H](CC(C)C)C(=O)N[C@@H](CC(=O)O)C(=O)N[C@@H](Cc1c[nH]c2ccccc12)C(=O)N[C@@H](CCSC)C(N)=O [Palm-SEQ ID NO:25-NH2] (Palmitoyl-DHFLDWM-NH2),% inhibition formation SNARE complex,SNARE complex [1]; [4],53%
same,% inhibition formation SNARE complex,SNARE complex [2]; concentration of compound 1 mM,36%
CCCCCCCCCCCCCCCC(=O)N[C@@H](CC(=O)O)C(=O)N[C@@H](Cc1c[nH]cn1)C(=O)N[C@@H](Cc1ccccc1)C(=O)N[C@@H](CC(C)C)C(=O)N[C@@H](CC(N)=O)C(=O)N[C@@H](Cc1c[nH]c2ccccc12)C(=O)N[C@@H](CCSC)C(N)=O [Palm-SEQ ID NO:34-NH2] (Palmitoyl-DHFLNWM-NH2),% inhibition formation SNARE complex,SNARE complex [1]; [4],51%
Ac-DHFLDWM-NH2 [Ac-SEQ ID NO:25-NH2],% RELEASED NORADRENALINE Average,[3]; 1 µM,99.59%
same,% RELEASED NORADRENALINE Average,[3]; 10 µM,94.48%
same,% RELEASED NORADRENALINE Average,[3]; 100 µM,74.79%
same,% RELEASED NORADRENALINE Average,[3]; 500 µM,48.07%
same,% RELEASED NORADRENALINE Average,[3]; 1000 µM,41.05%
Ac-DHFQQRM-NH2 [Ac-SEQ ID NO:24-NH2],% RELEASED NORADRENALINE Average,[3]; 1 µM,90.63%
same,% RELEASED NORADRENALINE Average,[3]; 10 µM,97.06%
same,% RELEASED NORADRENALINE Average,[3]; 100 µM,88.95%
same,% RELEASED NORADRENALINE Average,[3]; 500 µM,78.11%
same,% RELEASED NORADRENALINE Average,[3]; 1000 µM,67.90%
Ac-EDLKRWM-NH2 [Ac-SEQ ID NO:14-NH2],% RELEASED NORADRENALINE Average,[3]; 10 µM,84.96%
same,% RELEASED NORADRENALINE Average,[3]; 100 µM,85.97%
same,% RELEASED NORADRENALINE Average,[3]; 1000 µM,45.78%
Ac-EHLKQWM [Ac-SEQ ID NO:1-OH],% inhibition formation SNARE complex,SNARE complex [1]; [5],29%
Ac-EHLKQWM-NH2 [Ac-SEQ ID NO:1-NH2],% RELEASED NORADRENALINE Average,[3]; 1 µM,96.14%
same,% RELEASED NORADRENALINE Average,[3]; 10 µM,93.07%
same,% RELEASED NORADRENALINE Average,[3]; 100 µM,79.59%
same,% RELEASED NORADRENALINE Average,[3]; 500 µM,49.08%
same,% RELEASED NORADRENALINE Average,[3]; 1000 µM,42.48%
EHLKQWM-NH2 [H-SEQ ID NO:1-NH2],% inhibition formation SNARE complex,SNARE complex [1]; [5],30%
same,% inhibition formation SNARE complex,SNARE complex [1]; [4],58%
